Assay results as given in ChEMBL document CHEMBL4680322, “Mono- and bis-pyrazolophthalazines: Design, synthesis, cytotoxic activity, DNA/HSA binding and molecular docking studies” (Bioorg Med Chem, 2021).
Activity calls are given as the source filed them. No cut-off for these calls is given here.

How the values were obtained:
MCF7 [1] = test: Cytotoxicity against human MCF7 cells assessed as reduction in cell viability measured after 24 hrs by MTT assay; type: functional, cell-based; conditions: MCF7, 24 h
HT-29 = test: Cytotoxicity against human HT-29 cells assessed as reduction in cell viability measured after 24 hrs by MTT assay; type: functional, cell-based; conditions: HT-29, 24 h
A549 [2] = test: Cytotoxicity against human A549 cells assessed as reduction in cell viability measured after 24 hrs by MTT assay; type: functional, cell-based; conditions: A549, 24 h
HepG2 = test: Cytotoxicity against human HepG2 cells assessed as reduction in cell viability measured after 24 hrs by MTT assay; type: functional, cell-based; conditions: HepG2, 24 h
Albumin [3] = target: T1, Albumin (Homo sapiens, UniProt P02768); test: Binding affinity to human serum albumin assessed as change in hydrodynamic radius by dynamic light scattering analysis (reference value: 3.56 nanometer); type: ADME, cell-free
T1 sequence (P02768 whole entry): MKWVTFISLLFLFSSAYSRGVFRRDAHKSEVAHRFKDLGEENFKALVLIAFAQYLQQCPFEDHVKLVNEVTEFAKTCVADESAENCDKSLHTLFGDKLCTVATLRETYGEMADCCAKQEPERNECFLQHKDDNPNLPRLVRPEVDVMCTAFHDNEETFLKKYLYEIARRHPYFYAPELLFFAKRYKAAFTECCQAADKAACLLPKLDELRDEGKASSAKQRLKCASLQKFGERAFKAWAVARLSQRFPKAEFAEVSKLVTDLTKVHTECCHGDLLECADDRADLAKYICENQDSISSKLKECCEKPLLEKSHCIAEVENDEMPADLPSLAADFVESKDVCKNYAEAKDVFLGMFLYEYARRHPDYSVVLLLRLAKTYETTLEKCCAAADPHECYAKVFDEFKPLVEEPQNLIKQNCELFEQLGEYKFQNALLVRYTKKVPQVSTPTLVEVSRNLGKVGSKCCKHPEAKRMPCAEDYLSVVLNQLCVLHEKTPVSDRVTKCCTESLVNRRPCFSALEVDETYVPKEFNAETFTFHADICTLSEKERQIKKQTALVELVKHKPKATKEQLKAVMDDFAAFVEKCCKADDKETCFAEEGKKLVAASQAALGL

Albumin [4] = target: T1, Albumin; test: Binding affinity to human serum albumin assessed as apparent binding constant for protein-compound complex by B-H plot analysis; type: ADME, cell-free
Calf thymus DNA [5] = test: Binding affinity to calf thymus DNA assessed as zeta potential (reference value: -24.16 mV); type: tissue-based; conditions: Bos taurus
Calf thymus DNA [6] = test: Binding affinity to calf thymus DNA assessed as decrease in positive ellipticity by retaining basic CD spectrum shape at 187 uM by circular dichroism spectroscopy; conditions: Bos taurus
Calf thymus DNA [7] = test: Binding affinity to calf thymus DNA assessed as DNA-compound complex formation causing decrease in lambda-max shift at 3 to 187 uM and pH 7.4 by UV-Visible spectroscopy; conditions: Bos taurus, dose 3-187 µM
Calf thymus DNA [8] = test: Binding affinity to calf thymus DNA assessed as DNA-compound complex formation causing decrease in band intensity at 3 to 187 uM and pH 7.4 by UV-Visible spectroscopy; conditions: Bos taurus, dose 3-187 µM
Albumin [9] = target: T1, Albumin; test: Binding affinity to human serum albumin assessed as compound-protein complex stoichiometry ratio of 1:1 by B-H plot analysis; type: ADME, cell-free
MRC5 = test: Cytotoxicity against human MRC5 cells assessed as reduction in cell viability; type: cell-based
Albumin [10] = target: T1, Albumin; test: Binding affinity to human serum albumin assessed as induction of secondary structural changes by measuring decrease in alpha content at 187 uM by circular dichroism spectroscopy relative to control; type: cell-free; design: scale not given: the % may be the effect or the level left
Albumin [11] = target: T1, Albumin; test: Binding affinity to human serum albumin assessed as conformational changes at 2 to 187 uM by UV-Visible spectroscopy; type: ADME, cell-free; conditions: dose 2-187 µM
Albumin [12] = target: T1, Albumin; test: Binding affinity to human serum albumin assessed as microenvironmental changes at 2 to 187 uM by UV-Visible spectroscopy; type: ADME, cell-free; conditions: dose 2-187 µM
MCF-10A = test: Cytotoxicity against human MCF-10A cells assessed as reduction in cell viability; type: cell-based
Albumin [13] = target: T1, Albumin; test: Binding affinity to human serum albumin assessed as zeta potential by measuring surface charge (reference value: -16.15 mV); type: ADME, cell-free
Albumin [14] = target: T1, Albumin; test: Binding affinity to human serum albumin assessed as alpha-helix perturbation with reduction in absorption intensity at 214 nm causing blue shift at 2 to 187 uM by UV-Visible spectroscopy; type: ADME, cell-free; conditions: dose 2-187 µM
Calf thymus DNA [15] = test: Binding affinity to calf thymus DNA assessed as compound-DNA complex stoichiometry ratio of 1:1 by B-H plot analysis; conditions: Bos taurus
Calf thymus DNA [16] = test: Binding affinity to calf thymus DNA assessed as apparent binding constant for DNA-compound complex by B-H plot analysis; conditions: Bos taurus
A549 [17] = test: Potency index, ratio of doxorubicin IC50 to test compound IC50 for human A549 cells assessed as reduction in cell viability measured after 24 hrs by MTT assay; type: functional
MCF7 [18] = test: Potency index, ratio of doxorubicin IC50 to test compound IC50 for human MCF7 cells assessed as reduction in cell viability measured after 24 hrs by MTT assay; type: functional

SMILES | IC50 (MCF7 [1]) | IC50 (HT-29) | IC50 (A549 [2]) | IC50 (HepG2) | also measured
N#CC1=C(N)n2c(=O)c3ccccc3c(=O)n2C1c1ccc(OCCOc2ccc(C3C(C#N)=C(N)n4c(=O)c5ccccc5c(=O)n43)cc2)cc1 (centres undefined) | 91.3 µM | 268 µM | 183 µM | 249 µM | 
N#CC1=C(N)n2c(=O)c3ccccc3c(=O)n2C1c1cccc(Cl)c1 (centres undefined) | 7.84 µM | 69.3 µM | 11.6 µM | 28.2 µM | 
N#CC1=C(N)n2c(=O)c3ccccc3c(=O)n2C1c1ccccc1OCCCCOc1ccccc1C1C(C#N)=C(N)n2c(=O)c3ccccc3c(=O)n21 (centres undefined) | 44.6 µM | 82.4 µM | 111 µM | 244 µM | 
N#CC1=C(N)n2c(=O)c3ccccc3c(=O)n2C1c1ccccc1Cl (centres undefined) | 7.32 µM | 7.14 µM | 1.25 µM | 27.9 µM | Activity (Albumin [3]): 5.13 nm; Kapp (Albumin [4]): 5.2 10^3/M; Activity (Calf thymus DNA [5]): Active; Activity (Calf thymus DNA [6]): -18.1 mV; Activity (Calf thymus DNA [7]): Active; Activity (Calf thymus DNA [8]): Active; Activity (Albumin [9]): Active; IC50 (MRC5): 388 µM; Activity (Albumin [10]): 47.71%; Activity (Albumin [11]): Active; Activity (Albumin [12]): Active; IC50 (MCF-10A): 213 µM; Activity (Albumin [13]): -13.25 mV; Activity (Albumin [14]): Active; Activity (Calf thymus DNA [15]): Active; Kapp (Calf thymus DNA [16]): 4.2 10^4/M
COc1cccc(C2C(C#N)=C(N)n3c(=O)c4ccccc4c(=O)n32)c1 (centres undefined) | 23.2 µM | 107 µM | 38.3 µM | 178 µM | 
N#CC1=C(N)n2c(=O)c3ccccc3c(=O)n2C1c1ccc(Br)cc1 (centres undefined) | 5.97 µM | 31 µM | 81.6 µM | 40.5 µM | 
N#CC1=C(N)n2c(=O)c3ccccc3c(=O)n2C1c1ccccc1 (centres undefined) | 41.6 µM | 132 µM | 39.7 µM | 81.7 µM | 
N#CC1=C(N)n2c(=O)c3ccccc3c(=O)n2C1c1ccc(C2C(C#N)=C(N)n3c(=O)c4ccccc4c(=O)n32)cc1 (centres undefined) | 11.4 µM | 90.9 µM | 17.6 µM | 84.6 µM | 
N#CC1=C(N)n2c(=O)c3ccccc3c(=O)n2C1c1ccc(OCCCOc2ccc(C3C(C#N)=C(N)n4c(=O)c5ccccc5c(=O)n43)cc2)cc1 (centres undefined) | 0.66 µM | 3.1 µM | 2.47 µM | 36.2 µM | 
N#CC1=C(N)n2c(=O)c3ccccc3c(=O)n2C1c1ccccc1OCCCOc1ccccc1C1C(C#N)=C(N)n2c(=O)c3ccccc3c(=O)n21 (centres undefined) | 35.2 µM | 44.6 µM | 104 µM | 104 µM | 
N#CC1=C(N)n2c(=O)c3ccccc3c(=O)n2C1c1ccccc1OCCOc1ccccc1C1C(C#N)=C(N)n2c(=O)c3ccccc3c(=O)n21 (centres undefined) | 0.49 µM | 3.71 µM | 1.35 µM | 11.6 µM | Activity (Albumin [3]): 5.28 nm; Kapp (Albumin [4]): 3.8 10^4/M; Activity (Calf thymus DNA [5]): Active; Activity (Calf thymus DNA [6]): -17.8 mV; Activity (Calf thymus DNA [7]): Active; Ratio IC50 (A549 [17]): 2; Activity (Calf thymus DNA [8]): Active; Activity (Albumin [9]): Active; Ratio IC50 (MCF7 [18]): 2; IC50 (MRC5): 71.2 µM; Activity (Albumin [10]): 48.08%; Activity (Albumin [11]): Active; Activity (Albumin [12]): Active; IC50 (MCF-10A): 61.2 µM; Activity (Albumin [13]): -14.41 mV; Activity (Albumin [14]): Active; Activity (Calf thymus DNA [15]): Active; Kapp (Calf thymus DNA [16]): 5 10^4/M
N#CC1=C(N)n2c(=O)c3ccccc3c(=O)n2C1c1cccc(C2C(C#N)=C(N)n3c(=O)c4ccccc4c(=O)n32)c1 (centres undefined) | 8.66 µM | 186 µM | 18.2 µM | 50.8 µM | 
N#CC1=C(N)n2c(=O)c3ccccc3c(=O)n2C1c1ccc(O)c([N+](=O)[O-])c1 (centres undefined) | 77.4 µM | 124 µM | 47.5 µM | 19.5 µM | 
N#CC1=C(N)n2c(=O)c3ccccc3c(=O)n2C1c1ccc([N+](=O)[O-])cc1 (centres undefined) | 60.8 µM | 79.1 µM | 212 µM | 170 µM | 
COc1ccccc1C1C(C#N)=C(N)n2c(=O)c3ccccc3c(=O)n21 (centres undefined) | 455 µM | 79.7 µM | 627 µM | 697 µM | 
COc1ccc(C2C(C#N)=C(N)n3c(=O)c4ccccc4c(=O)n32)cc1 (centres undefined) | 23.9 µM | 66.5 µM | 39.8 µM | 93.8 µM | 
N#CC1=C(N)n2c(=O)c3ccccc3c(=O)n2C1c1ccc(Cl)cc1 (centres undefined) | 5.53 µM | 25.4 µM | 40.6 µM | 16.8 µM | 
COc1ccc(C2C(C#N)=C(N)n3c(=O)c4ccccc4c(=O)n32)cc1OC (centres undefined) | 5.1 µM | 36.4 µM | 24.7 µM | 73.5 µM | 
COc1cccc2c1C(=O)c1c(O)c3c(c(O)c1C2=O)C[C@@](O)(C(=O)CO)C[C@@H]3O[C@H]1C[C@H](N)[C@H](O)[C@H](C)O1 [DOXORUBICIN] | 1.77 µM | 1.13 µM | 2.31 µM | 2.32 µM | IC50 (MRC5): 3.88 µM; IC50 (MCF-10A): 3.52 µM
N#CC1=C(N)n2c(=O)c3ccccc3c(=O)n2C1c1ccc(Cl)cc1Cl (centres undefined) | 10.4 µM | 1.56 µM | 64 µM | 11.4 µM | 
N#CC1=C(N)n2c(=O)c3ccccc3c(=O)n2C1c1ccc(OCCCCOc2ccc(C3C(C#N)=C(N)n4c(=O)c5ccccc5c(=O)n43)cc2)cc1 (centres undefined) | 155 µM | 419 µM | 264 µM | 426 µM | 
N#CC1=C(N)n2c(=O)c3ccccc3c(=O)n2C1c1cccc([N+](=O)[O-])c1 (centres undefined) | 39.9 µM | 41.1 µM | 18.3 µM | 12.6 µM | 
